Source: patent US20180186877A1 (NATIONAL CEREBRAL AND CARDIOVASCULAR CENTER, priority 2013, published 2018)

Key:
human blood plasma = test: Recalcification blood coagulation test with procyanidin; format: biochemical
Experimental: An anti-blood coagulation effect yielded by procyanidin was confirmed by the recalcification blood coagulation test. […] Thereafter, as in Example 8, human blood plasma and Ca2+ were added to the test tube, and the coagulation time was measured. Then, the coagulation time of the test tube to which no procyanidin was added, was also measured in a similar manner. Furthermore, the coagulation time of the test tube to which no recombinant LOX-1 protein was added, was also measured in a similar manner.

[1] = biological target: binding of LOX-1 to oxidized LDL (Homo sapiens, UniProt P78380); settings: Nishizuka et al. 2011; cited from earlier work

Question: What does the source list for procyanidin?
Answer: coagulation time (human blood plasma; 1 μg/mL procyanidin added to blood plasma alone, no LOX-1): no influence; coagulation time (human blood plasma; 1 μg/mL procyanidin with 1 μg/mL LOX-1 and blood plasma, significance less than 5%): reduction of the coagulation time was suppressed; inhibition of binding of LOX-1 to oxidized LDL [1]: inhibits
